The term pIC50 denotes the negative decadic logarithm of the IC50, by convention in mol/L.

pIC50: −log10 of the molar value. Where only a bound is given, the exact number is not on record here.

Data set [1] can be described thus: Reversal of MRP2-mediated multidrug resistance in human KBV cells assessed as cisplatin IC50 at 10 uM after 72 hrs in presence of cisplatin by MTT assay (Rvb = 4902.89 +/- 130.33 nM). In general terms: Tetrazolium assays rely on reduction of a dye to a coloured formazan, in cell work by metabolically active cells.
Data set [2] in a line: Reversal of BCRP-mediated multidrug resistance in human KBV cells assessed as mitoxantrone IC50 at 10 uM after 72 hrs in presence of mitoxantrone by MTT assay (Rvb = 1186.50 +/- 29.24 nM).
A short description of data set [3]: Reversal of MRP2-mediated multidrug resistance in human KBV cells assessed as cisplatin IC50 at 5 uM after 72 hrs in presence of cisplatin by MTT assay (Rvb = 4902.89 +/- 130.33 nM).
A short description of data set [4]: Reversal of BCRP-mediated multidrug resistance in human KBV cells assessed as mitoxantrone IC50 at 5 uM after 72 hrs in presence of mitoxantrone by MTT assay (Rvb = 1186.50 +/- 29.24 nM).

On to `CSCC[C@H](NC(=O)OC(C)(C)C)C(=O)O[C@H]1CC[C@]2(C)[C@H]3C[C@@H](O)[C@@H]4[C@@H]([C@]5(C)CC[C@H](C(C)(C)O)O5)CC[C@@]4(C)[C@]3(C)CC[C@H]2C1(C)C`, for which the pIC50 in data set [1] is below 5.30; in data set [2], 6.13; in data set [3], below 5.30; in data set [4] it was 6.07.
Regarding `CSCC[C@H](NC(=O)OC(C)(C)C)C(=O)O[C@H]1CC[C@]2(C)[C@H]3C[C@@H](O)[C@@H]4[C@@H]([C@]5(C)CC[C@@H](C(C)(C)O)O5)CC[C@@]4(C)[C@]3(C)CC[C@H]2C1(C)C`, the pIC50 is below 5.30 in data set [1], 6.00 in data set [2], below 5.30 in data set [3] and 5.84 in data set [4].
As for `COc1ccc(CCN(C)CCCC(C#N)(c2ccc(OC)c(OC)c2)C(C)C)cc1OC` (centres undefined) [NSC_62969], in data set [1], the negative logarithm of the IC50 (pIC50) is below 5.30.
